Read-outs that look alike come from different tables or passages of the source.
Columns and labels:
[1] = 0.6 M NaClO4, 25 °C; cited from earlier work
[2] = type: physicochemical; settings: 0.15 M NaClO4, 25 °C
[3] = Protonation constants of Bi^III complexes by pH-potentiometry; type: physicochemical; settings: 0.15 M NaClO4, 25 °C

logK BiL (stability constant) [2]	logK BiL (stability constant) ([2]; listed as B)	logK Bi(HL) (protonation constant of complex) [3]	logK BiL (stability constant) ([2]; listed as A)	SMILES	logK BiL (stability constant) [1]
				O=C([O-])CN(CCN(CC(=O)[O-])CC(=O)[O-])CCN(CC(=O)[O-])CC(=O)[O-].[Bi+3] [[Bi(DTPA)]^2−]	29.29
28.75	28.75(8)	4.74(4)		O=C([O-])CCCCC1(N(CC(=O)[O-])CC(=O)[O-])CN(CC(=O)[O-])CCN(CC(=O)[O-])C1.[Bi+3] [[Bi(AAZTA‐C4‐COO^−)]^2−]	
26.45		1.63(3)	26.45(6)	CC1(N(CC(=O)[O-])CC(=O)[O-])CN(CC(=O)[O-])CCN(CC(=O)[O-])C1.[Bi+3] [[Bi(AAZTA)]^−]	
